PubChem BioAssay AID1963971 (Molecular Pharmacology Branch, DTP, NCI, 2024)
pIC50: −log10 of the molar value.

Test system: 953936-095-R-J2-PDC spheroids with HUVEC/MSC, viability
Experiment: Anticancer human tumor 953936-095-R-J2-PDC patient-derived cervical squamous cell carcinoma cell line growth inhibition [PI3K]
Details: for pIC50: curve of first compound; for viability, T/C: stronger effect = lower value
Summary of the method: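 We assembled tumor spheroids that included a stromal compartment of HUVEC and MSCs, then exposed them to targeted agents alone and together with PI3K pathway inhibitors. Concentration series descended by half-log from clinically achievable Cmax levels. Viability served as the endpoint.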

[1] = second compound 0.0316 µM, first compound 0.00316 µM
[2] = second compound 0.0316 µM, first compound 0.01 µM
[3] = second compound 0.0316 µM, first compound 0.0316 µM
[4] = second compound 0.0316 µM, first compound 0.1 µM
[5] = second compound 0.0316 µM, first compound 0.316 µM
[6] = second compound 0.0316 µM, first compound 1 µM
[7] = second compound 0.1 µM, first compound 0.00316 µM
[8] = second compound 0.1 µM, first compound 0.01 µM
[9] = second compound 0.1 µM, first compound 0.0316 µM
[10] = second compound 0.1 µM, first compound 0.1 µM
[11] = second compound 0.1 µM, first compound 0.316 µM
[12] = second compound 0.1 µM, first compound 1 µM
[13] = second compound 0.316 µM, first compound 0.00316 µM
[14] = second compound 0.316 µM, first compound 0.01 µM
[15] = second compound 0.316 µM, first compound 0.0316 µM
[16] = second compound 0.316 µM, first compound 0.1 µM
[17] = second compound 0.316 µM, first compound 0.316 µM
[18] = second compound 0.316 µM, first compound 1 µM
[19] = second compound 1 µM, first compound 0.00316 µM
[20] = second compound 1 µM, first compound 0.01 µM
[21] = second compound 1 µM, first compound 0.0316 µM
[22] = second compound 1 µM, first compound 0.1 µM
[23] = second compound 1 µM, first compound 0.316 µM
[24] = second compound 1 µM, first compound 1 µM
[25] = second compound 3.16 µM, first compound 0.00316 µM
[26] = second compound 3.16 µM, first compound 0.01 µM
[27] = second compound 3.16 µM, first compound 0.0316 µM
[28] = second compound 3.16 µM, first compound 0.1 µM
[29] = second compound 3.16 µM, first compound 0.316 µM
[30] = second compound 3.16 µM, first compound 1 µM
[31] = second compound 10 µM, first compound 0.00316 µM
[32] = second compound 10 µM, first compound 0.01 µM
[33] = second compound 10 µM, first compound 0.0316 µM
[34] = second compound 10 µM, first compound 0.1 µM
[35] = second compound 10 µM, first compound 0.316 µM
[36] = second compound 10 µM, first compound 1 µM
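Further: spheroids exposed to compounds for seven days before read-out.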

CCN1CCN(Cc2ccc(Nc3ncc(F)c(-c4cc(F)c5nc(C)n(C(C)C)c5c4)n3)nc2)CC1 + Cc1nc(NC(=O)N2CCCC2C(N)=O)sc1-c1ccnc(C(C)(C)C(F)(F)F)c1
pIC50 (second compound 0.0316 µM): < 6.00 | pIC50 (second compound 0.1 µM): < 6.00 | pIC50 (second compound 0.316 µM): < 6.00 | pIC50 (second compound 1 µM): > 8.50 | pIC50 (second compound 3.16 µM): > 8.50 | pIC50 (second compound 10 µM): > 8.50 | viability, T/C [1]: 89.8% | viability, T/C [2]: 93.8% | viability, T/C [3]: 88% | viability, T/C [4]: 88.6% | viability, T/C [5]: 87.1% | viability, T/C [6]: 75.5% | viability, T/C [7]: 84.8% | viability, T/C [8]: 83.4% | viability, T/C [9]: 83.4% | viability, T/C [10]: 78.3% | viability, T/C [11]: 76% | viability, T/C [12]: 73.4% | viability, T/C [13]: 66.3% | viability, T/C [14]: 63.4% | viability, T/C [15]: 65.9% | viability, T/C [16]: 55.8% | viability, T/C [17]: 58.6% | viability, T/C [18]: 53% | viability, T/C [19]: 47.6% | viability, T/C [20]: 46% | viability, T/C [21]: 43.7% | viability, T/C [22]: 41.8% | viability, T/C [23]: 38.3% | viability, T/C [24]: 36.7% | viability, T/C [25]: 26.6% | viability, T/C [26]: 26.3% | viability, T/C [27]: 24.4% | viability, T/C [28]: 23.6% | viability, T/C [29]: 23.3% | viability, T/C [30]: 22.2% | viability, T/C [31]: 10.8% | viability, T/C [32]: 11.2% | viability, T/C [33]: 10.5% | viability, T/C [34]: 9.34% | viability, T/C [35]: 9.59% | viability, T/C [36]: 11.1%

C[C@@H](NC(=O)c1ncnc(N)c1Cl)c1ncc(C(=O)Nc2cc(C(F)(F)F)c(Cl)cn2)s1 + Cc1nc(NC(=O)N2CCCC2C(N)=O)sc1-c1ccnc(C(C)(C)C(F)(F)F)c1
pIC50 (second compound 0.0316 µM): < 5.00 | pIC50 (second compound 0.1 µM): < 5.00 | pIC50 (second compound 0.316 µM): < 5.00 | pIC50 (second compound 1 µM): 6.72 | pIC50 (second compound 3.16 µM): > 7.50 | pIC50 (second compound 10 µM): > 7.50 | viability, T/C [3]: 91.4% | viability, T/C [4]: 92.8% | viability, T/C [5]: 101% | viability, T/C [6]: 97.8% | viability, T/C (second compound 0.0316 µM, first compound 3.16 µM): 114% | viability, T/C (second compound 0.0316 µM, first compound 10 µM): 92.1% | viability, T/C [9]: 84.7% | viability, T/C [10]: 86% | viability, T/C [11]: 87% | viability, T/C [12]: 89.4% | viability, T/C (second compound 0.1 µM, first compound 3.16 µM): 84.1% | viability, T/C (second compound 0.1 µM, first compound 10 µM): 81.2% | viability, T/C [15]: 66.5% | viability, T/C [16]: 69.3% | viability, T/C [17]: 65.1% | viability, T/C [18]: 72% | viability, T/C (second compound 0.316 µM, first compound 3.16 µM): 67% | viability, T/C (second compound 0.316 µM, first compound 10 µM): 71.3% | viability, T/C [21]: 53.3% | viability, T/C [22]: 49.1% | viability, T/C [23]: 47.2% | viability, T/C [24]: 49.9% | viability, T/C (second compound 1 µM, first compound 3.16 µM): 49.5% | viability, T/C (second compound 1 µM, first compound 10 µM): 45.2% | viability, T/C [27]: 28.2% | viability, T/C [28]: 28.7% | viability, T/C [29]: 27.6% | viability, T/C [30]: 29% | viability, T/C (second compound 3.16 µM, first compound 3.16 µM): 31% | viability, T/C (second compound 3.16 µM, first compound 10 µM): 27.4% | viability, T/C [33]: 13.3% | viability, T/C [34]: 14.4% | viability, T/C [35]: 15% | viability, T/C [36]: 17% | viability, T/C (second compound 10 µM, first compound 3.16 µM): 14.9% | viability, T/C (second compound 10 µM, first compound 10 µM): 11.6%

Cn1ncnc1[C@H]1c2n[nH]c(=O)c3cc(F)cc(c23)N[C@@H]1c1ccc(F)cc1 + Cc1nc(NC(=O)N2CCCC2C(N)=O)sc1-c1ccnc(C(C)(C)C(F)(F)F)c1
pIC50 (second compound 0.0316 µM): < 7.00 | pIC50 (second compound 0.1 µM): < 7.00 | pIC50 (second compound 0.316 µM): < 7.00 | pIC50 (second compound 1 µM): > 9.50 | pIC50 (second compound 3.16 µM): > 9.50 | pIC50 (second compound 10 µM): > 9.50 | viability, T/C (second compound 0.0316 µM, first compound 0.000316 µM): 91.5% | viability, T/C (second compound 0.0316 µM, first compound 0.001 µM): 94.8% | viability, T/C [1]: 99.5% | viability, T/C [2]: 90.9% | viability, T/C [3]: 94.6% | viability, T/C [4]: 95.7% | viability, T/C (second compound 0.1 µM, first compound 0.000316 µM): 86.6% | viability, T/C (second compound 0.1 µM, first compound 0.001 µM): 79.2% | viability, T/C [7]: 83.7% | viability, T/C [8]: 80.9% | viability, T/C [9]: 83.3% | viability, T/C [10]: 81.5% | viability, T/C (second compound 0.316 µM, first compound 0.000316 µM): 63.3% | viability, T/C (second compound 0.316 µM, first compound 0.001 µM): 63.9% | viability, T/C [13]: 62.8% | viability, T/C [14]: 62.5% | viability, T/C [15]: 66.6% | viability, T/C [16]: 58.2% | viability, T/C (second compound 1 µM, first compound 0.000316 µM): 45.1% | viability, T/C (second compound 1 µM, first compound 0.001 µM): 48.6% | viability, T/C [19]: 44.9% | viability, T/C [20]: 43.8% | viability, T/C [21]: 43.2% | viability, T/C [22]: 39.6% | viability, T/C (second compound 3.16 µM, first compound 0.000316 µM): 27% | viability, T/C (second compound 3.16 µM, first compound 0.001 µM): 26.2% | viability, T/C [25]: 26.4% | viability, T/C [26]: 26.3% | viability, T/C [27]: 26.5% | viability, T/C [28]: 25.5% | viability, T/C (second compound 10 µM, first compound 0.000316 µM): 11.4% | viability, T/C (second compound 10 µM, first compound 0.001 µM): 10.4% | viability, T/C [31]: 10.1% | viability, T/C [32]: 11.6% | viability, T/C [33]: 12.5% | viability, T/C [34]: 10.9%
